Results reported in US20070178523A1, “Novel druggable regions in set domain proteins, and methods of using the same” (Emory University, priority 2002, published 2007).
“Also recorded” adds a separate entry of the source.

Key:
[1] = target: T1, DIM-5 (Neurospora crassa, UniProt Q8X225); test: Methyl transfer (HKMT) activity assay; assay type: biochemical, N. crassa; parameters: A segment of the wild-type dim-5 ORF, including amino acid residues 17-318, was amplified; GST (N, cleaved yes); made in house; host or cells: E. coli BL21(DE3) Codon plus RIL carrying pXC379 (pGEX2T); conditions: for DIM-5 activity after incubation with metal chelator: incubation of metal chelator with DIM-5 protein
Description: The activity of the DIM-5 was assayed in a 20 μl reaction containing 50 mM glycine (pH 9.8), 2 mM DTT, 40-80 μM unlabelled AdoMet (Sigma), 0.5 μCi [methyl-^3H]AdoMet (78 Ci/mmol, NEN NET155H), 0.25-0.5 μg of DIM-5 protein, and 2-5 μg histones (calf thymus histones Sigma H4524, Roche 223565, or recombinant chicken erythrocyte histones, a gift from Dr. V. Ramakrishnan). The reaction was incubated at room temperature for 10-15 min and methylation was analyzed either by SDS-PAGE and fluorography, or by precipitation with 20% TCA, filtration (Milipore GF/F filter), washing and liquid scintillation counting. Under these conditions, DIM-5 activity was linearly related to reaction time and amount of enzyme and AdoMet and histone were saturating. For some reason, the relatively crude Sigma H4524 histone preparations generally gave 2-4 fold higher incorporation than either the Roche preparations or the recombinant histones.

[2] = target: T1, DIM-5; test: AdoMet-binding assay by UV crosslinking; parameters: A segment of the wild-type dim-5 ORF, including amino acid residues 17-318, was amplified; GST (N, cleaved yes); made in house; host or cells: E. coli BL21(DE3) Codon plus RIL carrying pXC379 (pGEX2T); species or system N. crassa; conditions: incubation of metal chelator with DIM-5 protein
Description: Twenty μl of purified DIM-5 protein (2-5 μg) was incubated with 0.5 μCi of [methyl-^3H]AdoMet (78 Ci/mmol, NEN NET155H) overnight at 4° C. Samples were added to a 96-well plate on ice and placed 8 cm from an inverted UV transilluminator (VWR, 302 nm) for 1 hr. The protein was then separated by SDS-PAGE, stained with Coomassie and subjected to fluorography.

[3] = target: T1, DIM-5; conditions: when EDTA completely abolished DIM-5 activity
Description: To remove zinc bound to EDTA, the protein was either dialyzed (Exp1) or subjected to gel filtration chromatography (Exp2) against 20 mM glycine (pH 9.8), 5% glycerol, 0.5 mM DTT and 1 mM EDTA.
One sample of untreated and two samples of EDTA treated DIM-5 protein (about 2 ml of 2 mg/ml each) was analyzed for the presence of 20 elements on a Thermo Jarrell-Ash Enviro 36 ICAP analyzer at the Chemical Analysis Laboratory of the University of Georgia at Athens. In order to calculate the molar ratio of Zn to protein, the precise concentration of the untreated DIM-5 protein was determined by amino acid analysis (averaging two independent measurements) performed at the Keck Facilities at Yale University. The extinction coefficient (29,559 M^−1 cm^−1) derived from the amino acid analysis was used to estimate the protein concentration of the EDTA-treated samples.

T1 sequence (Q8X225 30-331): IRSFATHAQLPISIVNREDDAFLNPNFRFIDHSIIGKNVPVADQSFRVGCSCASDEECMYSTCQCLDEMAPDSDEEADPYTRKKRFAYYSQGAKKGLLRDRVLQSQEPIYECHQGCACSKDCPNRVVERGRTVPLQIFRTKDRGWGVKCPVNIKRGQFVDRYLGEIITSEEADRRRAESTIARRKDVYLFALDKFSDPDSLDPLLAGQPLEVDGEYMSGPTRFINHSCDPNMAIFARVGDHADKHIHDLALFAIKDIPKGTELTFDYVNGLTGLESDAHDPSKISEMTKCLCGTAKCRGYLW

SMILES	DIM-5 activity after incubation with metal chelator [1]	AdoMet-binding [2]	zinc ions retained by the protein [3]	HKMT activity ([1]; DIM-5 incubated with 20 mM EDTA for 2 days)	inhibition of DIM-5 activity ([1]; 100 mM NaCl)
c1cnc2c(c1)ccc1cccnc12 [phenanthroline, 1,10-phenanthroline]	inhibited its activity	significantly reduced	–	–	–
O=C(O)CN(CCN(CC(=O)O)CC(=O)O)CC(=O)O [EDTA]	inhibited its activity; also recorded: completely abolished	significantly reduced	~2.9 zinc ions	no longer detectable	–
[Cl-].[Na+] [NaCl]	–	–	–	–	about 95%
